# Assays:
# Typhlodromus pyri = test: LR50; higher = less toxic; conditions: not reported; mortality
# Tagia sp. = conditions: acute; duration: 14 days; mortality
# Oncorhynchus mykiss = conditions: acute; duration: 96 hours; mortality
# Canidae = conditions: oral, Dog Other, histopathology: nonneoplastic
# Pimephales promelas = conditions: chronic/long-term; duration: 32 days; other
# Anas platyrhynchos = conditions: oral, mortality
# Daphnia magna = conditions: chronic/long-term; duration: 21 days; reproduction
# Apis mellifera = conditions: acute; duration: 48 hours; dermal; mortality
structure (smiles),measurement,setting,value
COc1cc(OC)n2nc(S(=O)(=O)Nc3c(Cl)ccc(C)c3Cl)nc2n1 [Metosulam],LR50,Typhlodromus pyri,> 40 mg/kg
same,LC50,Tagia sp.,> 1000 mg/kg
same,LC50,Oncorhynchus mykiss,> 29.3 µg/mL
same,NOAEL,"Canidae; chronic, duration: 1 years",10 mg/kg-day
same,NOAEL,"Canidae; short-term, duration: 2 weeks, diet",25 mg/kg-day
same,NOEC,Pimephales promelas,4.24 mg/L
same,LD50,"Anas platyrhynchos; acute, unspecified",> 2000 mg/kg
same,LC50,"Anas platyrhynchos; short-term, feed",> 1920 mg/kg-day
same,NOEC,Daphnia magna,2.5 mg/L
same,LC50,"Colinus virginianus; acute, oral, diet, mortality",> 1400 mg/kg-day
same,LD50,"Colinus virginianus; acute, oral, mortality",> 2250 mg/kg
same,NOEC,Colinus virginianus; reproduction developmental,22 mg/kg-day
same,LD50,Apis mellifera,> 100 µg/piece
same,LD50,"Rattus norvegicus; acute, oral, mortality",> 5000 mg/kg
same,NOAEL,"Rattus norvegicus; chronic, duration: 2 years, histopathology: nonneoplastic",5 mg/kg-day
same,NOEL,"Rattus norvegicus; chronic, histopathology: nonneoplastic",30 mg/kg-day

# — EPA's ToxValDB 9.5 (doi:10.2903/j.efsa.2010.1592)
